Experimental data as given in the NIST ThermoML archive (doi:10.1021/je9006713).
Several values for one entry are separate records, joined by “and”; a condition that tells them apart may be missing. Identical values can stand only once.

Test: mn = molality of the nth substance listed, in mol/kg
Settings: Liquid, glass piezometer

[I-].[NH4+] [ammonium iodide] + N
mass density
Settings | 303.15 K | 313.15 K | 323.15 K | 333.15 K | 343.15 K | 353.15 K | 363.15 K | 373.15 K
10000 kPa, m1 = 0.867 | 698.2 kg/m3 | 683.7 kg/m3 | 668.4 kg/m3 | 650.5 kg/m3 | 632.1 kg/m3 | 615.5 kg/m3 | 593.9 kg/m3 | 579.5 kg/m3
10000 kPa, m1 = 1.827 | 777.3 kg/m3 | 762.9 kg/m3 | 748.7 kg/m3 | 732.5 kg/m3 | 716.4 kg/m3 | 700.1 kg/m3 | 680.1 kg/m3 | 666.9 kg/m3
10000 kPa, m1 = 3.103 | 870.7 kg/m3 | 857.4 kg/m3 | 844.3 kg/m3 | 829.3 kg/m3 | 814.6 kg/m3 | 797.7 kg/m3 | 780.9 kg/m3 | 768.1 kg/m3
10000 kPa, m1 = 4.856 | 988.2 kg/m3 | 974.7 kg/m3 | 960.5 kg/m3 | 947.6 kg/m3 | 933.1 kg/m3 | 917.8 kg/m3 | 903.2 kg/m3 | 889.8 kg/m3
10000 kPa, m1 = 7.271 | 1109 kg/m3 | 1097.5 kg/m3 | 1085.9 kg/m3 | 1075.9 kg/m3 | 1062.2 kg/m3 | 1049.9 kg/m3 | 1037.1 kg/m3 | 1026.1 kg/m3
10000 kPa, m1 = 11.18 | 1234 kg/m3 | 1222.9 kg/m3 | 1212.3 kg/m3 | 1199.8 kg/m3 | 1188.9 kg/m3 | 1177.9 kg/m3 | 1166.7 kg/m3 | 1155.3 kg/m3
10000 kPa, m1 = 16.46 | 1329.5 kg/m3 | 1322 kg/m3 | 1312 kg/m3 | 1302.5 kg/m3 | 1293.1 kg/m3 | 1284.9 kg/m3 | 1274.7 kg/m3 | 1265.9 kg/m3
15000 kPa, m1 = 0.867 | 702.3 kg/m3 | 688 kg/m3 | 672.8 kg/m3 | 655.7 kg/m3 | 638 kg/m3 | 621.8 kg/m3 | 601.7 kg/m3 | 587.3 kg/m3
15000 kPa, m1 = 1.827 | 780.7 kg/m3 | 766.9 kg/m3 | 752.7 kg/m3 | 737 kg/m3 | 721.7 kg/m3 | 705.7 kg/m3 | 687.2 kg/m3 | 674 kg/m3
15000 kPa, m1 = 3.103 | 874.3 kg/m3 | 861.1 kg/m3 | 848.1 kg/m3 | 833.5 kg/m3 | 818.9 kg/m3 | 803 kg/m3 | 786.3 kg/m3 | 773.7 kg/m3
15000 kPa, m1 = 4.856 | 992.3 kg/m3 | 978.5 kg/m3 | 964.8 kg/m3 | 951.7 kg/m3 | 937.1 kg/m3 | 922.1 kg/m3 | 907.9 kg/m3 | 894.4 kg/m3
15000 kPa, m1 = 7.271 | 1112.4 kg/m3 | 1100.9 kg/m3 | 1089.2 kg/m3 | 1078.8 kg/m3 | 1065.7 kg/m3 | 1053.5 kg/m3 | 1040.7 kg/m3 | 1029.7 kg/m3
15000 kPa, m1 = 11.18 | 1236.7 kg/m3 | 1225.9 kg/m3 | 1214.9 kg/m3 | 1202.6 kg/m3 | 1192.1 kg/m3 | 1181 kg/m3 | 1169.8 kg/m3 | 1158.5 kg/m3
15000 kPa, m1 = 16.46 | 1332.2 kg/m3 | 1323.9 kg/m3 | 1314.6 kg/m3 | 1305 kg/m3 | 1296 kg/m3 | 1287.4 kg/m3 | 1277.2 kg/m3 | 1268.6 kg/m3
20000 kPa, m1 = 0.867 | 706.3 kg/m3 | 691.9 kg/m3 | 677 kg/m3 | 660.8 kg/m3 | 643.7 kg/m3 | 627.9 kg/m3 | 609.6 kg/m3 | 595.1 kg/m3
20000 kPa, m1 = 1.827 | 783.9 kg/m3 | 770.7 kg/m3 | 756.8 kg/m3 | 741.3 kg/m3 | 726.9 kg/m3 | 711.2 kg/m3 | 694.2 kg/m3 | 681 kg/m3
20000 kPa, m1 = 3.103 | 877.8 kg/m3 | 864.6 kg/m3 | 852 kg/m3 | 837.7 kg/m3 | 823.2 kg/m3 | 808.3 kg/m3 | 791.7 kg/m3 | 779.4 kg/m3
20000 kPa, m1 = 4.856 | 996.2 kg/m3 | 982.3 kg/m3 | 969 kg/m3 | 955.5 kg/m3 | 941.1 kg/m3 | 926.5 kg/m3 | 912.5 kg/m3 | 898.9 kg/m3
20000 kPa, m1 = 7.271 | 1115.2 kg/m3 | 1103.9 kg/m3 | 1092.5 kg/m3 | 1081.7 kg/m3 | 1069.2 kg/m3 | 1056.9 kg/m3 | 1044.1 kg/m3 | 1033.2 kg/m3
20000 kPa, m1 = 11.18 | 1238.9 kg/m3 | 1228.8 kg/m3 | 1217 kg/m3 | 1205.5 kg/m3 | 1194.9 kg/m3 | 1183.7 kg/m3 | 1172.8 kg/m3 | 1161.6 kg/m3
20000 kPa, m1 = 16.46 | 1334.5 kg/m3 | 1326.5 kg/m3 | 1316.8 kg/m3 | 1307.6 kg/m3 | 1298.5 kg/m3 | 1289.9 kg/m3 | 1279.6 kg/m3 | 1271 kg/m3
25000 kPa, m1 = 0.867 | 710.1 kg/m3 | 695.7 kg/m3 | 681.3 kg/m3 | 666 kg/m3 | 649.4 kg/m3 | 634.3 kg/m3 | 617.4 kg/m3 | 603.1 kg/m3
25000 kPa, m1 = 1.827 | 787.4 kg/m3 | 774.7 kg/m3 | 760.7 kg/m3 | 745.9 kg/m3 | 731.9 kg/m3 | 716.6 kg/m3 | 701.2 kg/m3 | 687.8 kg/m3
25000 kPa, m1 = 3.103 | 881.1 kg/m3 | 867.8 kg/m3 | 855.9 kg/m3 | 841.8 kg/m3 | 827.6 kg/m3 | 813.5 kg/m3 | 797.3 kg/m3 | 785.2 kg/m3
25000 kPa, m1 = 4.856 | 999.8 kg/m3 | 986.1 kg/m3 | 973.3 kg/m3 | 959.4 kg/m3 | 945.1 kg/m3 | 931 kg/m3 | 916.8 kg/m3 | 903.4 kg/m3
25000 kPa, m1 = 7.271 | 1118 kg/m3 | 1107.3 kg/m3 | 1095.5 kg/m3 | 1084.6 kg/m3 | 1072.4 kg/m3 | 1060.4 kg/m3 | 1047.4 kg/m3 | 1036.7 kg/m3
25000 kPa, m1 = 11.18 | 1241.2 kg/m3 | 1231.4 kg/m3 | 1219.2 kg/m3 | 1208 kg/m3 | 1197.3 kg/m3 | 1186.5 kg/m3 | 1175.5 kg/m3 | 1164.3 kg/m3
25000 kPa, m1 = 16.46 | 1336.8 kg/m3 | 1329.2 kg/m3 | 1319.4 kg/m3 | 1310.2 kg/m3 | 1301.4 kg/m3 | 1292.4 kg/m3 | 1281.7 kg/m3 | 1273.4 kg/m3
30000 kPa, m1 = 0.867 | 713.7 kg/m3 | 699.6 kg/m3 | 685.5 kg/m3 | 671.3 kg/m3 | 654.8 kg/m3 | 640.4 kg/m3 | 625.2 kg/m3 | 610.8 kg/m3
30000 kPa, m1 = 1.827 | 791 kg/m3 | 778.6 kg/m3 | 764.7 kg/m3 | 749.9 kg/m3 | 737 kg/m3 | 721.9 kg/m3 | 708.4 kg/m3 | 694.7 kg/m3
30000 kPa, m1 = 3.103 | 884.5 kg/m3 | 871.3 kg/m3 | 859.8 kg/m3 | 845.6 kg/m3 | 831.8 kg/m3 | 818.7 kg/m3 | 802.8 kg/m3 | 790.9 kg/m3
30000 kPa, m1 = 4.856 | 1003.5 kg/m3 | 989.9 kg/m3 | 977.3 kg/m3 | 963.1 kg/m3 | 949.2 kg/m3 | 935.2 kg/m3 | 921.1 kg/m3 | 907.8 kg/m3
30000 kPa, m1 = 7.271 | 1120.4 kg/m3 | 1110.4 kg/m3 | 1098.5 kg/m3 | 1087.3 kg/m3 | 1075.2 kg/m3 | 1063.5 kg/m3 | 1050.5 kg/m3 | 1039.9 kg/m3
30000 kPa, m1 = 11.18 | 1243.5 kg/m3 | 1233.7 kg/m3 | 1221.4 kg/m3 | 1210.2 kg/m3 | 1199.8 kg/m3 | 1188.9 kg/m3 | 1177.9 kg/m3 | 1166.8 kg/m3
30000 kPa, m1 = 16.46 | – | 1338.7 kg/m3 and 1331.4 kg/m3 | 1321.6 kg/m3 | 1312.4 kg/m3 | 1303.9 kg/m3 | 1294.5 kg/m3 | 1283.9 kg/m3 | 1275.8 kg/m3
